Assays:
Assay type in all cases: in vivo
[1] = system: Tobacco cutworm (Spodoptera litura) larvae; test: Test against tobacco cutworm (Spodoptera litura) larvae, leaf dip; conditions: active compound concentration 100 ppm; third instar larvae on dipped sweet potato leaves; after 7 days
Description: (§1) Unless described otherwise, the test solutions were prepared as follows:
(§2) The active compound, 1 part by weight of the active compound was admixed with the solvent in the above described amount which contains the emulsifying agent in the above described amount. The mixture was then diluted with water to specific concentration.
(§3) In order to prepare the test solution containing the active compound, 1 part by weight of the active compound was admixed with 3 parts by weight of the solvent dimethyl formamide which contains 1 part by weight of the emulsifying agent polyoxyethylene alkylphenyl ether. This mixture is then diluted with water to the specific concentration.
(§4) Solvent: dimethyl formamide, 3 parts by weight; emulsifying agent: polyoxyethylene alkylphenyl ether, 1 part by weight
Leaves of sweet potato were immersed in the test solution at the appropriate concentration, and the leaves were dried in air. The leaves were then placed in a petri dish having a diameter of 9 cm, and ten Spodoptera litura at third instar larvae were released therein. The petri dishes were placed in a temperature-controlled chamber at 25° C. After 2 days and 4 days more sweet potato leaves were added. After 7 days, the number of dead larvae was counted to calculate the insecticidal activity. An insecticidal activity of 100% means that all larvae were killed, whereas an insecticidal activity of 0% means that no larva was killed. In the current test, the results of two petri dishes for each treatment were averaged.

[2] = system: Two-spotted spider mite (Tetranychus urticae); test: Test against two-spotted spider mite (Tetranychus urticae), spray; conditions: active compound concentration 100 ppm; adult mites on kidney bean, sprayed; after 7 days
Description: as §1, §2, §3, §4
50 to 100 adult mites of Tetranychus urticae were inoculated to leaves of kidney bean at two-leaf stage planted in a pot of 6 cm in diameter. After one day, test solution at the appropriate concentration was sprayed thereon in a sufficient amount using a spray gun. After the spraying, the plant pot was placed inside a greenhouse, and after 7 days, the acaricidal activity was calculated. An acaricidal activity of 100% means that all mites were killed, whereas an acaricidal activity of 0% means that no mite was killed.

[3] = system: Cucurbit leaf beetle (Aulacophora femoralis); test: Test against cucurbit leaf beetle (Aulacophora femoralis), leaf dip; conditions: active compound concentration 100 ppm; second instar larvae on dipped cucumber leaves; after 7 days
Description: as §1, §2, §3, §4
Leaves of cucumber were immersed in the test solution at the appropriate concentration, and the leaves were dried in air. The leaves were then put in a plastic cup containing sterilized black soil and five Aulacophora femoralis at second instar larvae were released in the cup. The cups were placed in a temperature-controlled chamber at 25° C. After 7 days, the number of dead larvae was counted, and thus the insecticidal activity was calculated. An insecticidal activity of 100% means that all larvae were killed, whereas an insecticidal activity of 0% means that no larva was killed.

With O=C(CC(F)(F)F)NCc1ccc(N2CC(c3cc(Cl)c(Cl)c(Cl)c3)(C(F)(F)F)OC2=O)cc1C(F)(F)F (stereo not drawn) [Compound 1-21] the insecticidal activity [1] was 100%, the acaricidal activity [2] was 100% and the insecticidal activity [3] was 100%.

CC(=O)NC(C)c1ccc(N2CC(c3cc(Cl)c(Cl)c(Cl)c3)(C(F)(F)F)OC2=O)cc1 (stereo not drawn) [Compound 1-370] was tested, and the insecticidal activity [1] was 100% and the insecticidal activity [3] was 100%.

CC(=O)NCc1ccc(N2CC(c3cc(C(F)(F)F)cc(C(F)(F)F)c3)(C(F)(F)F)OC2=O)cc1C(F)(F)F (stereo not drawn) [Compound 1-128] showed an insecticidal activity [1] of 100% and an insecticidal activity [3] of 100%.

With CSCC(=O)NCc1ccc(N2CC(c3cc(Cl)c(Cl)c(Cl)c3)(C(F)(F)F)OC2=O)cc1C(F)(F)F (stereo not drawn) [Compound 1-22] the insecticidal activity [1] was 100% and the insecticidal activity [3] was 100%.

CCC(=O)NC1CCc2cc(N3CC(c4cc(Cl)cc(Cl)c4)(C(F)(F)F)OC3=O)ccc21 (stereo not drawn) [Compound 4-3] was tested, and the insecticidal activity [1] was 100%.

In the case of CSCC(=O)NCc1ccc(N2CC(c3cc(C(F)(F)F)cc(C(F)(F)F)c3)(C(F)(F)F)OC2=O)cc1Cl (stereo not drawn) [Compound 1-148], the insecticidal activity [3] is reported as 100%.

With CC(NC(=O)C1CC1)c1ccc(N2CC(c3cc(Cl)c(Cl)c(Cl)c3)(C(F)(F)F)OC2=O)cc1 (stereo not drawn) [Compound 1-373] the insecticidal activity [1] was 100% and the acaricidal activity [2] was 100%.

O=C(NCc1ccc(N2CC(c3cc(Cl)cc(Cl)c3)(C(F)(F)F)OC2=O)cc1C(F)(F)F)C1CC1 (stereo not drawn) [Compound 1-5] gave an insecticidal activity [1] of 100% and an insecticidal activity [3] of 100%.

In the case of COCCC(=O)NCc1ccc(N2CC(c3cc(C(F)(F)F)cc(C(F)(F)F)c3)(C(F)(F)F)OC2=O)cc1C(F)(F)F (stereo not drawn) [Compound 1-137], the acaricidal activity [2] is reported as 100% and the insecticidal activity [3] is reported as 100%.

For CC(C)(C)OC(=O)NCc1ccc(N2CC(c3cc(Cl)cc(Cl)c3)(C(F)(F)F)OC2=O)cc1C(F)(F)F (stereo not drawn) [Compound 1-14], the insecticidal activity [1] was 100% and the insecticidal activity [3] was 100%.

With CCC(=O)NCc1ccc(N2CC(c3cc(C(F)(F)F)cc(C(F)(F)F)c3)(C(F)(F)F)OC2=O)cc1C(F)(F)F (stereo not drawn) [Compound 1-129] the insecticidal activity [1] was 100%, the acaricidal activity [2] was 100% and the insecticidal activity [3] was 100%.

CCC(=O)NCc1ccc(N2CC(c3cc(Cl)c(Cl)c(Cl)c3)(C(F)(F)F)OC2=O)cc1Cl (stereo not drawn) [Compound 1-31] gave an insecticidal activity [1] of 100%, an acaricidal activity [2] of 100% and an insecticidal activity [3] of 100%.

With O=C(NC1CCc2cc(N3CC(c4cc(Cl)c(Cl)c(Cl)c4)(C(F)(F)F)OC3=O)ccc21)C1CC1 (stereo not drawn) [Compound 4-33] the insecticidal activity [1] was 100%, the acaricidal activity [2] was 100% and the insecticidal activity [3] was 100%.

Compound CCC(=O)NC(C)c1ccc(N2CC(c3cc(Cl)c(Cl)c(Cl)c3)(C(F)(F)F)OC2=O)cc1 (racemic) [Compound 1-371, N-(1-{4-[2-oxo-5-(3,4,5-trichlorophenyl)-5-(trifluoromethyl)-1,3-oxazolidin-3-yl]phenyl}ethyl)propanamide] has an insecticidal activity [1] of 100% and an acaricidal activity [2] of 100%.

COCCC(=O)NCc1ccc(N2CC(c3cc(C(F)(F)F)cc(C(F)(F)F)c3)(C(F)(F)F)OC2=O)cc1C (stereo not drawn) [Compound 1-165] gave an insecticidal activity [1] of 100% and an insecticidal activity [3] of 100%.

For CCC(=O)NCc1ccc(N2CC(c3cc(C(F)(F)F)cc(C(F)(F)F)c3)(C(F)(F)F)OC2=O)cc1Cl (stereo not drawn) [Compound 1-143], the insecticidal activity [1] was 100% and the insecticidal activity [3] was 100%.

COCCC(=O)NCc1ccc(N2CC(c3cc(C(F)(F)F)cc(C(F)(F)F)c3)(C(F)(F)F)OC2=O)cc1Cl (stereo not drawn) [Compound 1-151] was tested, and the insecticidal activity [1] was 100%.

Compound C[S+]([O-])CC(=O)NCc1ccc(N2CC(c3cc(C(F)(F)F)cc(C(F)(F)F)c3)(C(F)(F)F)OC2=O)cc1Cl (stereo not drawn) [Compound 1-149] has an insecticidal activity [1] of 100% and an insecticidal activity [3] of 100%.

CCNC(=O)NCc1ccc(N2CC(c3cc(Cl)cc(Cl)c3)(C(F)(F)F)OC2=O)cc1C(F)(F)F (stereo not drawn) [Compound 1-13] gave an insecticidal activity [1] of 100%.

For CCC(=O)NCc1ccc(N2CC(c3cc(C(F)(F)F)cc(C(F)(F)F)c3)(C(F)(F)F)OC2=O)cc1C (stereo not drawn) [Compound 1-157], the insecticidal activity [1] was 100% and the insecticidal activity [3] was 100%.

With CCCC(=O)NCc1ccc(N2CC(c3cccc(C(F)(F)F)c3)(C(F)(F)F)OC2=O)cc1C(F)(F)F (stereo not drawn) [Compound 1-74] the insecticidal activity [1] was 100% and the insecticidal activity [3] was 100%.
